Experimental data as given in patent publication US20240343681A1, “MOLECULES HAVING PESTICIDAL UTILITY AND INTERMEDIATES AND PROCESSES RELATED THERETO” (priority 2021, published 2024).

The molecules below were run on Beet Armyworm (Spodoptera exigua, LAPHEG) second instar larva (assay: Bioassay on beet armyworm (BAW), 128-well diet tray assay). Conditions: 50 μg/cm^2 on artificial diet, 25° C., five days.
Format: in vivo
Procedure: Example A: Bioassays on Beet Armyworm (Spodoptera exigua, LAPHEG) (“BAW”) and Cabbage Looper (Trichoplusia ni, TRIPNI) (“CL”)
Bioassays on BAW were conducted using a 128-well diet tray assay. One second instar BAW larva was placed in each well (8 wells total) of the diet tray that had been previously filled with 1 mL of artificial diet to which 50 μg/cm^2 of the test molecule (dissolved in 50 μL of 90:10 acetone-water mixture) had been applied (to each of eight wells) and then allowed to dry. Trays were covered with a clear self-adhesive cover, vented to allow gas exchange, and held at 25° C., 14:10 light-dark for five days. Percent mortality was recorded for the larvae in each well; activity in the eight wells was then averaged.

Row | Compound | activity against BAW (percent mortality, averaged over eight wells)
1 | CC(=O)NCC(=O)Nc1cc(NC(=O)[C@H]2[C@H](c3cc(Cl)cc(Cl)c3)C2(Cl)Cl)ccc1Cl (racemic) [F51, trans-rac-N-(3-(2-Acetamidoacetamido)-4-chlorophenyl)-2,2-dichloro-3-(3,5-dichlorophenyl)cyclopropane-1-carboxamide] | exhibited activity
2 | O=C(Nc1cc(NC(=O)C2C(c3cc(Cl)cc(Cl)c3)C2(Cl)Cl)ccc1Cl)C1CCCN1CC(F)(F)F (racemic) [F52, trans-rac-N-(2-Chloro-5-(2,2-dichloro-3-(3,5-dichlorophenyl)cyclopropane-1-carboxamido)phenyl)-1-(2,2,2-trifluoroethyl)pyrrolidine-2-carboxamide] | exhibited activity
3 | O=C(Nc1ccc(Cl)c(NC(=O)C(F)(F)C(F)F)c1)[C@H]1[C@H](c2cc(Cl)cc(Cl)c2)C1(Cl)Cl (racemic) [F55, trans-rac-2,2-Dichloro-N-(4-chloro-3-(2,2,3,3-tetrafluoropropanamido)phenyl)-3-(3,5-dichlorophenyl)cyclopropane-1-carboxamide] | exhibited activity
4 | O=C(Nc1ccc(Cl)c(NC(=O)C(F)(F)c2ccccc2)c1)[C@H]1[C@H](c2cc(Cl)cc(Cl)c2)C1(Cl)Cl (racemic) [F57, trans-rac-2,2-Dichloro-N-(4-chloro-3-(2,2-difluoro-2-phenylacetamido)phenyl)-3-(3,5-dichlorophenyl)cyclopropane-1-carboxamide] | exhibited activity
5 | O=C(CN1CCOCC1)Nc1cc(NC(=O)[C@H]2[C@H](c3cc(Cl)cc(Cl)c3)C2(Cl)Cl)ccc1F (racemic) [F63, trans-rac-2,2-Dichloro-3-(3,5-dichlorophenyl)-N-(4-fluoro-3-(2-morpholinoacetamido)phenyl)cyclopropane-1-carboxamide] | exhibited activity
6 | O=C(Nc1cc(NC(=O)[C@H]2[C@H](c3cc(Cl)cc(Cl)c3)C2(Cl)Cl)ccc1Cl)c1ccccc1F (racemic) [F65, trans-rac-N-(2-Chloro-5-(2,2-dichloro-3-(3,5-dichlorophenyl)cyclopropane-1-carboxamido)phenyl)-2-fluorobenzamide] | exhibited activity
7 | O=C(Nc1cc(NC(=O)[C@H]2[C@H](c3cc(Cl)cc(Cl)c3)C2(Cl)Cl)ccc1Cl)c1cccc(F)c1 (racemic) [F66, trans-rac-N-(2-Chloro-5-(2,2-dichloro-3-(3,5-dichlorophenyl)cyclopropane-1-carboxamido)phenyl)-3-fluorobenzamide] | exhibited activity
8 | Cc1ccccc1C(=O)Nc1cc(NC(=O)[C@H]2[C@H](c3cc(Cl)cc(Cl)c3)C2(Cl)Cl)ccc1Cl (racemic) [F73, trans-rac-N-(2-Chloro-5-(2,2-dichloro-3-(3,5-dichlorophenyl)cyclopropane-1-carboxamido)phenyl)-2-methylbenzamide] | exhibited activity
9 | Cc1cc(C)cc(C(=O)Nc2cc(NC(=O)[C@H]3[C@H](c4cc(Cl)cc(Cl)c4)C3(Cl)Cl)ccc2Cl)c1 (racemic) [F76, trans-rac-N-(2-Chloro-5-(2,2-dichloro-3-(3,5-dichlorophenyl)cyclopropane-1-carboxamido)phenyl)-3,5-dimethylbenzamide] | exhibited activity
10 | O=C(Nc1cc(NC(=O)[C@H]2[C@H](c3cc(Cl)cc(Cl)c3)C2(Cl)Cl)ccc1Cl)c1cccc(C(F)(F)F)c1 (racemic) [F81, trans-rac-N-(2-Chloro-5-(2,2-dichloro-3-(3,5-dichlorophenyl)cyclopropane-1-carboxamido)phenyl)-3-(trifluoromethyl)benzamide] | exhibited activity
11 | O=C(Nc1cc(NC(=O)[C@H]2[C@H](c3cc(Cl)cc(Cl)c3)C2(Cl)Cl)ccc1Cl)c1ccccc1 (racemic) [F87, trans-rac-N-(2-Chloro-5-(2,2-dichloro-3-(3,5-dichlorophenyl)cyclopropane-1-carboxamido)phenyl)benzamide] | exhibited activity
12 | O=C(Nc1cc(NC(=O)[C@H]2[C@H](c3cc(Cl)cc(Cl)c3)C2(Cl)Cl)ccc1Cl)c1cccc([N+](=O)[O-])c1 (racemic) [F88, trans-rac-N-(2-chloro-5-(2,2-dichloro-3-(3,5-dichlorophenyl)cyclopropane-1-carboxamido)phenyl)-3-nitrobenzamide] | exhibited activity
13 | O=C(Nc1cc(NC(=O)[C@H]2[C@H](c3cc(Cl)cc(Cl)c3)C2(Cl)Cl)ccc1Cl)c1ccc([N+](=O)[O-])cc1 (racemic) [F89, trans-rac-N-(2-Chloro-5-(2,2-dichloro-3-(3,5-dichlorophenyl)cyclopropane-1-carboxamido)phenyl)-4-nitrobenzamide] | exhibited activity
14 | Cc1cc([N+](=O)[O-])ccc1C(=O)Nc1cc(NC(=O)[C@H]2[C@H](c3cc(Cl)cc(Cl)c3)C2(Cl)Cl)ccc1Cl (racemic) [F90, trans-rac-N-(2-Chloro-5-(2,2-dichloro-3-(3,5-dichlorophenyl)cyclopropane-1-carboxamido)phenyl)-2-methyl-4-nitrobenzamide] | exhibited activity
15 | C#Cc1ccc(C(=O)Nc2cc(NC(=O)[C@H]3[C@H](c4cc(Cl)cc(Cl)c4)C3(Cl)Cl)ccc2Cl)cc1 (racemic) [F91, trans-rac-N-(2-Chloro-5-(2,2-dichloro-3-(3,5-dichlorophenyl)cyclopropane-1-carboxamido)phenyl)-4-ethynylbenzamide] | exhibited activity
16 | CC(CC(=O)N(C)c1cc(NC(=O)C2C(c3cc(Cl)cc(Cl)c3)C2(Cl)Cl)ccc1Cl)C(F)(F)F (racemic) [F92, trans-rac-2,2-dichloro-N-(4-chloro-3-(4,4,4-trifluoro-N,3-dimethylbutanamido)phenyl)-3-(3,5-dichlorophenyl)cyclopropane-1-carboxamide] | exhibited activity
17 | Cc1cc(C#N)ccc1C(=O)N(C)c1cc(NC(=O)[C@H]2[C@H](c3cc(Cl)cc(Cl)c3)C2(Cl)Cl)ccc1Cl (racemic) [F93, trans-rac-N-(2-Chloro-5-(2,2-dichloro-3-(3,5-dichlorophenyl)cyclopropane-1-carboxamido)phenyl)-4-cyano-N,2-dimethylbenzamide] | exhibited activity
18 | CN(C(=O)c1cc(F)cc(F)c1)c1cc(NC(=O)[C@H]2[C@H](c3cc(Cl)cc(Cl)c3)C2(Cl)Cl)ccc1Cl (racemic) [F94, trans-rac-N-(2-Chloro-5-(2,2-dichloro-3-(3,5-dichlorophenyl)cyclopropane-1-carboxamido)phenyl)-3,5-difluoro-N-methylbenzamide] | exhibited activity
